# Data from US8546085B2, “Methods of identifying modulators of the bitter taste receptor TAS2R44” (Givaudan SA, priority 2008, dated 2013).
# Where two headings read alike, the source gives them in different places.
# Assays:
# TAS2R44 = target: T1, TAS2R44 (Homo sapiens, UniProt P59538, L162M); assay: Fluo-4 calcium assay, antagonists of the response of TAS2R44 to steviol glycosides; assay type: cell-based
# T1 construct: The full length gene of human TAS2R44 was amplified by polymerase chain reaction (PCR) using gene-specific primers that span the entire coding region; RSS tag (first 45 amino acids of rat somatostatin receptor subtype 3, plus EcoRI site) (N); expressed in transfected cells; host or cells: HEK293T/Galpha16-gustducin 44 cells, stably transfected with pcDNA3.1Zeo-TAS2R44
# T1 sequence (P59538 with tags, fused parts or gaps L162M): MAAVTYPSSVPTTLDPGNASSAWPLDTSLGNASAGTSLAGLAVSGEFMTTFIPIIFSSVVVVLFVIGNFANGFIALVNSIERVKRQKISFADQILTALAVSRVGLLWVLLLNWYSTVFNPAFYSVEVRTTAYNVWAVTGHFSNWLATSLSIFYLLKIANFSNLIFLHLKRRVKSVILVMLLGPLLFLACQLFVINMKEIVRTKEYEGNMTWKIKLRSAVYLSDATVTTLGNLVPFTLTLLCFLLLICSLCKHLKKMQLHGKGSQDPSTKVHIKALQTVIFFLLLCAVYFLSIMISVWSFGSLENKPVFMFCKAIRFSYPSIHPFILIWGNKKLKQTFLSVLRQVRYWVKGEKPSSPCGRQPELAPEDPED
# Protocol: All cells were HEK293T cells stably expressing Gα16-gustducin44, or expressing Gα16-gustducin44 and TAS2R44.
# The method was carried out as described in example 3 subject to the following modifications:
# The samples were tested with and without candidate bitter blocker and the signals were compared. The candidate bitter blocker was dissolved in dimethylsulfoxide (DMSO), and a negative control with equivalent DMSO concentration (0.02%) was performed accordingly to exclude a potential inhibitory effect of the solvent. Furthermore, a control with the relevant steviol glycoside and DMSO (0.02%) was performed accordingly (see table in example 5).
# All data was calculated as ΔF/F0 and the standard deviation (STD) is indicated in each table, see results for the identified bitter blocker 4-(2,2,3-trimethyl-cyclopentyl)-butanoic acid below.
# [1] = tested on: bitter taste/aftertaste of Rebaudioside A; assay: Sensory evaluation of bitter blocking by 8 bitter-sensitive panelists; assay type: in vivo, human
# Protocol: 4-(2,2,3-trimethyl-cyclopentyl)-butanoic acid was sensorically evaluated for its bitter blocking characteristics by 8 bitter-sensitive panelists.
# The following samples in water were evaluated and compared in their bitter taste/aftertaste: • Rebaudioside A (60 ppm) with bitter blocker (10 ppm) • Rebaudioside A (60 ppm) without bitter blocker • Rebaudioside A (230 ppm, isosweet to 7% sugar in water) • Rebaudioside A (230 ppm) with bitter blocker (10 ppm 30 ppm and 50 ppm)
# 20 ml of each sample was presented in random order.
smiles,measurement,setting,value
"CC1CCC(CCCC(=O)O)C1(C)C (centres unmarked) [4-(2,2,3-trimethyl-cyclopentyl)-butanoic acid]",TAS2R44 ΔF/F0,TAS2R44; 0.7 mM rebaudioside A (EC50) + bitter blocker 0.098 μM,0.4022
same,TAS2R44 ΔF/F0,TAS2R44; 0.7 mM rebaudioside A (EC50) + bitter blocker 0.195 μM,0.3678
same,TAS2R44 ΔF/F0,TAS2R44; 0.7 mM rebaudioside A (EC50) + bitter blocker 0.391 μM,0.2825
same,TAS2R44 ΔF/F0,TAS2R44; 0.7 mM rebaudioside A (EC50) + bitter blocker 0.781 μM,0.2156
same,TAS2R44 ΔF/F0,TAS2R44; 0.7 mM rebaudioside A (EC50) + bitter blocker 1.563 μM,0.1328
same,TAS2R44 ΔF/F0,TAS2R44; 0.7 mM rebaudioside A (EC50) + bitter blocker 3.125 μM,0.1225
same,TAS2R44 ΔF/F0,TAS2R44; 0.7 mM rebaudioside A (EC50) + bitter blocker 6.250 μM,0.1794
same,TAS2R44 ΔF/F0,TAS2R44; 0.7 mM rebaudioside A (EC50) + bitter blocker 12.50 μM,0.2056
same,TAS2R44 ΔF/F0,TAS2R44; 0.7 mM rebaudioside A (EC50) + bitter blocker 25.00 μM,0.2275
same,TAS2R44 ΔF/F0,TAS2R44; 0.7 mM rebaudioside A (EC50) + bitter blocker 50.00 μM,0.2347
same,TAS2R44 ΔF/F0,TAS2R44; 0.7 mM rebaudioside A (EC50) + bitter blocker 100.0 μM,0.2238
same,TAS2R44 ΔF/F0,TAS2R44; 2.2 mM stevioside (EC50) + bitter blocker 0.098 μM,0.665
same,TAS2R44 ΔF/F0,TAS2R44; 2.2 mM stevioside (EC50) + bitter blocker 0.195 μM,0.596
same,TAS2R44 ΔF/F0,TAS2R44; 2.2 mM stevioside (EC50) + bitter blocker 0.391 μM,0.555
same,TAS2R44 ΔF/F0,TAS2R44; 2.2 mM stevioside (EC50) + bitter blocker 0.781 μM,0.491
same,TAS2R44 ΔF/F0,TAS2R44; 2.2 mM stevioside (EC50) + bitter blocker 1.563 μM,0.431
same,TAS2R44 ΔF/F0,TAS2R44; 2.2 mM stevioside (EC50) + bitter blocker 3.125 μM,0.430
same,TAS2R44 ΔF/F0,TAS2R44; 2.2 mM stevioside (EC50) + bitter blocker 6.250 μM,0.328
same,TAS2R44 ΔF/F0,TAS2R44; 2.2 mM stevioside (EC50) + bitter blocker 12.50 μM,0.293
same,TAS2R44 ΔF/F0,TAS2R44; 2.2 mM stevioside (EC50) + bitter blocker 25.00 μM,0.252
same,TAS2R44 ΔF/F0,TAS2R44; 2.2 mM stevioside (EC50) + bitter blocker 50.00 μM,0.238
same,TAS2R44 ΔF/F0,TAS2R44; 2.2 mM stevioside (EC50) + bitter blocker 100.0 μM,0.212
same,IC50,"TAS2R44; inhibition of the response to 0.7 mM rebaudioside A, read-out: IC50 concentration for rebaudioside",0.357 µM
same,IC50,"TAS2R44; inhibition of the response to 2.2 mM stevioside, read-out: IC50 concentration for stevioside",0.578 µM
same,effect on bitterness of Rebaudioside A,"[1]; 10 ppm bitter blocker, in water",blocked the upfront bitterness but some lingering bitterness/aftertaste remained
same,effect on bitterness of Rebaudioside A,"[1]; 30 ppm bitter blocker, Rebaudioside A 230 ppm in water",improved effect to reduce the lingering bitterness/bitter aftertaste
same,effect on bitterness of Rebaudioside A,"[1]; 50 ppm bitter blocker, Rebaudioside A 230 ppm in water",improved effect to reduce the lingering bitterness/bitter aftertaste
same,effect on bitterness of Rebaudioside A,"[1]; 60 ppm, in water",completely blocked the bitterness including the bitter aftertaste
same,effect on bitter taste/aftertaste of Rebaudioside A,"[1]; all panelists, samples in water",blocked or significantly reduced the bitter taste/aftertaste
